In patent EP0321967A2, “Compounds active on the cardiovascular system” (ZAMBON GROUP S.p.A., priority 1987, dated 1989):

How the values were obtained:
[1] = system: spontaneously hypertensive rat; assay: Systemic arterial pressure decrease after intravenous administration in spontaneously hypertensive rat; assay type: in vivo; details: in comparison with the basal value
From the text: The compounds object of the present invention after administration by intravenous route in spontaneously hypertensive rat at the dose of 0.033-0.53 µm/kg induce a meaningful systemic arterial pressure decrease comprised between 20 and 90 mmHg.

[2] = target: T1, D₂ receptor (Rattus norvegicus, UniProt P61169); assay: Dopaminergic activity: receptor binding on isolated membranes of rat striated muscle, D2; details: read-out: IC₅₀
T1 construct: from tissue; host or cells: isolated membranes of rat striated muscle (so in the source); probably striatum is meant
T1 sequence (P61169 whole entry): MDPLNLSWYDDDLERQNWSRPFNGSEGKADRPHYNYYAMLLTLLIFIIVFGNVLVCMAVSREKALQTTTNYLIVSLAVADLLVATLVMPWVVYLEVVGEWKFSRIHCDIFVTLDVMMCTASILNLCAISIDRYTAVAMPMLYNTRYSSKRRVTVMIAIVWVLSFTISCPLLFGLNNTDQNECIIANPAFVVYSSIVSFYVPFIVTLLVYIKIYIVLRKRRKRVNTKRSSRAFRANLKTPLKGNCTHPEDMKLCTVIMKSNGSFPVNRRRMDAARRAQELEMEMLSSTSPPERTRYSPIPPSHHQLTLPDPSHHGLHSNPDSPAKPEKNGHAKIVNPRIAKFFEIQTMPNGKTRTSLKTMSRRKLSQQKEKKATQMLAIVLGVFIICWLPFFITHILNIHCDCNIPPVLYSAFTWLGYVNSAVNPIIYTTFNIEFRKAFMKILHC
Experimental: (§1) The dopaminergic activity of compound A, for example, has been evaluated as percentage of receptor binding on isolated membranes of rat striated muscle; the IC₅₀ resulted to be 0.3 µM for D₂ receptor and 3 µM for D₁ receptor.

[3] = target: T2, D₁ receptor (Rattus norvegicus, UniProt P18901); assay: Dopaminergic activity: receptor binding on isolated membranes of rat striated muscle, D1; details: read-out: IC₅₀
T2 construct: from tissue; host or cells: isolated membranes of rat striated muscle (so in the source); probably striatum is meant
T2 sequence (P18901 whole entry): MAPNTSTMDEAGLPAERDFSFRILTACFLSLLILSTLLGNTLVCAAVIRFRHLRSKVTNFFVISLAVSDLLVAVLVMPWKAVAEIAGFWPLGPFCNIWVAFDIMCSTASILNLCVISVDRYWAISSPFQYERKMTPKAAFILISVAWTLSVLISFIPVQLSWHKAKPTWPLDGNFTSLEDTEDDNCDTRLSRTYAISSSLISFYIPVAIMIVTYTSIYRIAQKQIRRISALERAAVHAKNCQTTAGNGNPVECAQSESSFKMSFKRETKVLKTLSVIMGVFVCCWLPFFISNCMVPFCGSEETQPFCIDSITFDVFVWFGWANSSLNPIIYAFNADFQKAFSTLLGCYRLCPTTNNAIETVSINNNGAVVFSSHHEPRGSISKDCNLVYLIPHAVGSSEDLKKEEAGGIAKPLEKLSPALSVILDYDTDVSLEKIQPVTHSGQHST
Experimental: as §1

[4] = system: α₁; assay: α1-antagonistic effect on phenylephrine-induced vasoconstriction of rabbit isolated aorta; assay type: cell-based; details: antagonism of vasoconstriction induced by phenylephrine (α₁-agonist)
From the text: The α₁-antagonistic effect has been evaluated as antagonistic effect (pA₂) on vasoconstriction induced by phenylephrine (α₁-agonist) on rabbit isolated aorta. For compound A the obtained pA₂ value was 7.7.

`CCCN(CCOc1ccccc1OC)CCc1ccc(O)c(O)c1.Cl` [compound A, N-[2-(2-methoxyphenoxy)ethyl]-N-propyl-dopamine hydrochloride] was tested, and the “reduction of systemic arterial pressure” value ([1]; dose 12.5 µg/kg) was 51 mmHg, the “reduction of systemic arterial pressure” value ([1]; dose 200 µg/kg) was 89 mmHg and the IC50 [2] was 300 nM. The IC50 [3] was 3000 nM and the pA₂ [4] was 7.7.
